Data taken from paper PMC9956223, “In Vitro Inhibitory Effects of Polyphenols from Flos sophorae immaturus on α-Glucosidase: Action Mechanism, Isothermal Titration Calorimetry and Molecular Docking Analysis” (Foods, 2023).
“Also recorded” adds a separate entry of the source. Marks after values point to notes of the source that are not given here.

Key:
α-glucosidase (Yeast) [1] = assay: α-glucosidase inhibition type and kinetic analysis (Lineweaver–Burk); assay type: biochemical; conditions: for type of inhibition: Lineweaver–Burk plots; for Ki: binding to α-glucosidase, Lineweaver–Burk
Procedure: In 5 mL of the reaction system, different concentrations of PNPG (0.5 mL) were mixed with different concentrations of polyphenols (0.1 mL) in a warm bath at 37 °C for 5 min, α-glucosidase solution (1 mL) was added and the absorbance was recorded at 405 nm in real time. Lineweaver–Burk curve method using the inverse of the PNPG concentration 1/(s) as the horizontal coordinate and the inverse of the enzymatic reaction rate 1/v as the vertical coordinate, and the type of inhibition was determined from the characteristics of the graph.

α-glucosidase (Yeast) [2] = assay: Fluorescence quenching (Stern–Volmer) and thermodynamic parameters; assay type: binding
Procedure: An equal volume of polyphenol solution (0.02 mg/mL) was added to 3 mL of α-glucosidase solution (0.05 mg/mL) in 9 separate additions of 10 μL each. The mixture was shaken and then placed in a warm bath at 37 °C for 15 min. The system was scanned for fluorescence at three temperatures (298 K, 303 K, 310 K) using an F-7000 fluorescence spectrometer (Hitachi, Tokyo, Japan) at an excitation wavelength of 280 nm and excitation and emission slits of 5 nm. The fluorescence was scanned in the range of 310–500 nm and the corresponding blank control fluorescence spectra were subtracted to calculate the fluorescence. The Stern–Volmer equation was used to calculate the fluorescence burst constants and determine the type of burst.
Therefore, the spontaneity and binding force of their interactions can be studied by calculating thermodynamic parameters. The values of the free energy change (ΔG), enthalpy change (ΔH) and entropy change (ΔS) can be calculated by Equations (5) and (6). (5) ΔG=[…]=ΔH−TΔS (6) lnKb2/Kb1=[…]ΔH×1/R where R = 8.314 J/(mol·K).

α-glucosidase (Yeast) [3] = assay: α-glucosidase inhibitory activity (PNPG substrate, absorbance at 405 nm); assay type: biochemical; conditions: α-glucosidase 0.2 U/mL, pH 6.8, 37 °C
Procedure: (§1) The α-glucosidase inhibitory activity of the FSI samples was measured using the method described by Xiao et al., with minor modifications. Each sample solution (0.2 mL) was mixed with 1 mL of α-glucosidase (0.2 U/mL) of pH = 6.8 phosphate buffer solution. After incubation at 37 °C for 15 min, 0.5 mL of 5 mmol/L PNPG in phosphate buffer solution was added. The reaction was terminated by the addition of 1 mL of 0.1 mol/L sodium Na2CO3 […] at 37 °C for 15 min. The absorbance was measured at 405 nm. The α-glucosidase inhibitory activity was calculated using the following Equation (1):(1) α-Glucosidase inhibitory activity(%)=(ΔAcontrol−ΔAsample/ΔAcontrol)×100

α-glucosidase (Yeast) [4] = assay: Omission experiment (model, single polyphenol and recombinant solutions); assay type: biochemical; conditions: single polyphenol solution at its content in FSI extract (RU 3.40, QU 0.38, HY 0.34, QI 0.23, KA 0.23 mg/mL)
Procedure: as §1
Three different solutions were prepared based on different polyphenol fractions (RU (3.40 mg/mL), QU (0.38 mg/mL), HY (0.34 mg/mL), QI (0.23 mg/mL) and KA (0.23 mg/mL): (1) Model solution: a model solution based on the composition of FSI extract. (2) Single polyphenol solution: a component solution containing only a single polyphenol, prepared based on the polyphenol content in FSI extract. (3) Recombinant solution: a reconstituted solution consisting of the missing individual polyphenol. The α-glucosidase inhibitory activities of the model, single polyphenol and recombinant solutions were determined and the contribution of the missing polyphenols to α-glucosidase activity inhibition was calculated.

SMILES | type of inhibition (α-glucosidase (Yeast) [1]; listed as HY) | Ki (α-glucosidase (Yeast) [1]) | Ki (α-glucosidase (Yeast) [1]; listed as HY) | KSV (α-glucosidase (Yeast) [2]; 298 K) | Kq (α-glucosidase (Yeast) [2]; 298 K) | KSV (α-glucosidase (Yeast) [2]; 303 K) | Kq (α-glucosidase (Yeast) [2]; 303 K) | KSV (α-glucosidase (Yeast) [2]; 310 K) | Kq (α-glucosidase (Yeast) [2]; 310 K) | IC50 (α-glucosidase (Yeast) [3]) | α-Glucosidase Inhibition Rate of Omitted Compounds (α-glucosidase (Yeast) [4]) | type of inhibition (α-glucosidase (Yeast) [1]; listed as KA) | type of inhibition (α-glucosidase (Yeast) [1]; listed as QU) | type of inhibition (α-glucosidase (Yeast) [1]; listed as QI) | type of inhibition (α-glucosidase (Yeast) [1]; listed as RU)
O=c1c(O[C@@H]2O[C@H](CO)[C@H](O)[C@H](O)[C@H]2O)c(-c2ccc(O)c(O)c2)oc2cc(O)cc(O)c12 [Hyperoside, hyperoside] | mixed type of inhibition; also recorded: mixed inhibitors | 3.79 mM | 3.91 mM | 124300 L/mol | 1.243e+13 M⁻¹ s⁻¹ | 89600 L/mol | 8.96e+12 M⁻¹ s⁻¹ | 111700 L/mol | 1.117e+13 M⁻¹ s⁻¹ | 12.77 ± 0.07 ^d mg/mL | 75.00 ± 0.32% | – | – | – | –
COc1cc(-c2oc3cc(O)cc(O)c3c(=O)c2O)ccc1O [Isorhamnetin, isorhamnetin] | – | 15.1 mM | – | – | – | – | – | – | – | 255.00 ± 0.11 ^g mg/mL | – | – | – | – | –
O=c1c(O)c(-c2ccc(O)cc2)oc2cc(O)cc(O)c12 [Kaempferol, kaempferol] | – | – | – | 222300 L/mol | 2.223e+13 M⁻¹ s⁻¹ | 493300 L/mol | 4.933e+13 M⁻¹ s⁻¹ | 424600 L/mol | 4.246e+13 M⁻¹ s⁻¹ | – | 81.00 ± 0.12% | mixed type of inhibition; also recorded: mixed inhibitors | – | – | –
O=C(O)c1ccc(O)c(O)c1 [Protocatechuic acid, protocatechuic acid] | – | 17.7 mM | – | – | – | – | – | – | – | 369.00 ± 0.11 ^h mg/mL | – | – | – | – | –
O=c1c(O)c(-c2ccc(O)c(O)c2)oc2cc(O)cc(O)c12 [Quercetin, quercetin] | – | – | – | 107100 L/mol | 1.071e+13 M⁻¹ s⁻¹ | 75200 L/mol | 7.52e+12 M⁻¹ s⁻¹ | 55500 L/mol | 5.55e+12 M⁻¹ s⁻¹ | – | 89.00 ± 0.25% | – | mixed type of inhibition; also recorded: mixed inhibitors | – | –
C[C@@H]1O[C@@H](Oc2c(-c3ccc(O)c(O)c3)oc3cc(O)cc(O)c3c2=O)[C@H](O)[C@H](O)[C@H]1O [Quercitrin, quercitrin] | – | 5.31 mM | – | 74500 L/mol | 7.45e+12 M⁻¹ s⁻¹ | 78700 L/mol | 7.87e+12 M⁻¹ s⁻¹ | 54500 L/mol | 5.45e+12 M⁻¹ s⁻¹ | 25.37 ± 0.13 ^e mg/mL | 77.00 ± 0.20% | – | – | mixed type of inhibition; also recorded: mixed inhibitors | –
C[C@@H]1O[C@@H](OC[C@H]2O[C@@H](Oc3c(-c4ccc(O)c(O)c4)oc4cc(O)cc(O)c4c3=O)[C@H](O)[C@@H](O)[C@@H]2O)[C@H](O)[C@H](O)[C@H]1O [Rutin] | – | – | – | 45000 L/mol | 4.5e+12 M⁻¹ s⁻¹ | 93700 L/mol | 9.37e+12 M⁻¹ s⁻¹ | 93400 L/mol | 9.34e+12 M⁻¹ s⁻¹ | – | 69.00 ± 0.11% | – | – | – | mixed type of inhibition; also recorded: mixed inhibitors
